Tests used:
[1] = test system: experimentally provoked fever; test: Antipyretic activity (experimentally provoked fever); format: in vivo; set-up: unit not given here; details: 25 mg./kg. p.o.
Description: Besides their antiphlogistic activities, some of the benzo(a)quinolizidine derivatives exert antipyretic effects as well. On the basis of the tests performed on experimentally provoked fever, the antipyretic activities of the compounds according to the invention surpass the effect of amidazophenum.

Acute toxicity tests = format: in vivo; details: rat, in vivo, po; rats, Litchfield-Wildoxon method
Experimental: The acute toxicity values of the compounds were determined on rats, after oral administration. The LD50 values were calculated according to the Litchfield-Wildoxon method.

central nervious system = test: Narcosis potentiating effect; format: in vivo; details: 20 mg./kg. p.o.
kaolin-induced oedema = test: Inhibition of kaolin-induced oedema; format: in vivo; details: 100 mg./kg. p.o., 2 hours
Experimental: (§1) Inhibition of Kaolin- and carrageenin-induced oedema
(§2) The tests were carried out on groups each consisting of at least 10 animals. The percentage inhibition of oedema, in relation to the untreated controls, was determined for each of the animals, and the average values were calculated.

[2] = test system: carrageenin-induced oedema; test: Inhibition of carrageenin-induced oedema; format: in vivo; details: 100 mg./kg. p.o., 1.5 hours
Experimental: as §1, §2

Cotton granuloma = Cotton granuloma test; format: in vivo; details: 100 mg./kg.
[3] = Determination of ulcer index

In the case of `Cc1c(N(C)C)c(=O)n(-c2ccccc2)n1C` [Amidazophenum], the “Variation of body temperature” value ([1]; 1 hour after administration) is reported as -1.17, the “Variation of body temperature” value ([1]; 2 hours after administration) is reported as -0.94 and the “Variation of body temperature” value ([1]; 3 hours after administration) is reported as -0.95.
With `CC(=O)Oc1ccccc1C(=O)O` [Aspirin, reference compound] the LD50 (Acute toxicity tests) was 1700 mg/kg.
With `CCCC(C)(COC(N)=O)COC(N)=O` [Meprobamate, reference compound] the “Prolongation of the sleep period in relation to the untreated controls, %” value (central nervious system) was 110.2%.
With `O=C(O)c1ccccc1O` [Na-salicylate, reference compound] the “Inhibition of kaolin-induced oedema 2 hours after administration” value (kaolin-induced oedema) was 10.5%, the “Inhibition of carrageenin-induced oedema 1.5 hours after administration” value [2] was 16.2% and the “Effect, % (cotton granuloma test)” value (Cotton granuloma) was 25.5%. The Erosion ([3]; female) was 3/10, the Ulcer ([3]; female) was 2/10 and the Erosion ([3]; male) was 1/10. The Ulcer ([3]; male) was 4/10.

Source: patent US4102886A, “Process for the preparation of benzo(a)quinolizidine derivatives” (priority 1974, dated 1978)
